Reference: ChEMBL document CHEMBL5620378, “Structure-based discovery of novel cruzain inhibitors with distinct trypanocidal activity profiles” (Eur J Med Chem, 2023)
Values belong to the compound of their own block, whether it stands above or below them. Calls of active or inactive are those of the source. The calls are words filed in the database; no cut-off is given here.

Assays:
[1] = target: T1, Cruzipain (Trypanosoma cruzi, UniProt P25779); experiment: Inhibition of C-terminal truncated Trypanosoma cruzi Tulahuen Cruzain using Z-FR-AMC as substrate measured for 5 mins by fluorescence based analysis
[2] = target: Cruzipain (Trypanosoma cruzi) (UniProt P25779); experiment: Competitive inhibition of C-terminal truncated Trypanosoma cruzi Tulahuen Cruzain assessed as increase in Km(app) using Z-FR-AMC as substrate by Michaelis-menten based analysis
[3] = target: T1, Cruzipain; experiment: Competitive inhibition of C-terminal truncated Trypanosoma cruzi Tulahuen Cruzain using Z-FR-AMC as substrate by Michaelis-menten based analysis
[4] = target: Cruzipain (Trypanosoma cruzi) (UniProt P25779); experiment: Competitive inhibition of C-terminal truncated Trypanosoma cruzi Tulahuen Cruzain assessed as constant Vmax using Z-FR-AMC as substrate by Lineweaver-Burk plot analysis
[5] = target: Cruzipain (Trypanosoma cruzi) (UniProt P25779); experiment: Inhibition of C-terminal truncated Trypanosoma cruzi Tulahuen Cruzain using Z-FR-AMC as substrate at 100 uM measured for 5 mins by fluorescence based analysis
[6] = target: Cruzipain (Trypanosoma cruzi) (UniProt P25779); experiment: Ratio of IC50 for inhibition of C-terminal truncated Trypanosoma cruzi Tulahuen Cruzain in presence of different concentrations of Triton to IC50 for inhibition of C-terminal truncated Trypanosoma cruzi Tulahuen Cruzain
[7] = target: Cruzipain (Trypanosoma cruzi) (UniProt P25779); experiment: Ratio of IC50 for inhibition of C-terminal truncated Trypanosoma cruzi Tulahuen Cruzain in presence of 0% Triton and BSA to IC50 for inhibition of C-terminal truncated Trypanosoma cruzi Tulahuen Cruzain
[8] = target: Cathepsin L (Homo sapiens, UniProt P07711); experiment: Inhibition of human recombinant Cathepsin L (18 to 333 residues) assessed as residual activity using Z-FR-AMC as substrate at 100 uM measured for 5 mins by fluorescence based analysis; settings: recombinant human Cathepsin L (residues 18 to 333), probe Z-FR-AMC, read-out: Activity
[9] = system: Trypanosoma cruzi; experiment: Trypanocidal activity against Trypanosoma cruzi Y infected in C57BL/6 mouse Peritoneal macrophages assessed as reduction in trypomastigotes release at 6.25 uM measured on day 5 post-infection; format: functional; settings: Peritoneal macrophage, 120 h, time 5 day
[10] = system: Trypanosoma cruzi; experiment: Trypanocidal activity against Trypanosoma cruzi Y infected in C57BL/6 mouse Peritoneal macrophages assessed as reduction in trypomastigotes release at 100 uM measured on day 5 post-infection; format: functional; settings: Peritoneal macrophage, 120 h, time 5 day
[11] = system: Peritoneal macrophage; experiment: Cytotoxicity against C57BL/6 mouse Peritoneal macrophages assessed as cell damage at 0.19 to 400 uM measured after 24 hrs by LDH assay; format: toxicity, cell-based; settings: dose 0.19-400 µM
[12] = system: Peritoneal macrophage; experiment: Cytotoxicity against C57BL/6 mouse Peritoneal macrophages infected with Trypanosoma cruzi Y assessed as cell damage at 0.19 to 400 uM measured after 24 hrs by LDH assay; format: toxicity, cell-based; settings: dose 0.19-400 µM
[13] = system: Peritoneal macrophage; experiment: Effect on NO release in C57BL/6 mouse Peritoneal macrophages infected with Trypanosoma cruzi Y measured at 11 days post-infection by Griess reagent based assay; format: functional, cell-based; settings: time 11.0 day
[14] = system: Trypanosoma cruzi; experiment: Trypanocidal activity against trypomastigote form of Trypanosoma cruzi Y assessed as reduction in parasite load at 6.25 uM incubated for 1 hr; format: functional
[15] = system: Trypanosoma cruzi; experiment: Trypanocidal activity against trypomastigote form of Trypanosoma cruzi Y infected in C57BL/6 mouse Peritoneal macrophages assessed as reduction in intracellular parasite infection at 0.19 to 400 uM preincubated with parasite for 1 hr followed by infection and measured at 3 to 11 days post-infection; format: functional, organism-based; settings: Peritoneal macrophage, dose 0.19-400 µM, time 3-11 day
[16] = system: Trypanosoma cruzi; experiment: Trypanocidal activity against epimastigotes form of Trypanosoma cruzi Y assessed as parasite viability by MTT assay; format: functional, organism-based
[17] = system: Trypanosoma cruzi; experiment: Trypanocidal activity against epimastigotes form of Trypanosoma cruzi Y assessed as decrease in parasite growth at 200 uM pretreated for 1 hr followed by drug wash-out and measured after 72 hrs by optical microscopic analysis; format: functional
[18] = system: Trypanosoma cruzi; experiment: Trypanocidal activity against epimastigotes form of Trypanosoma cruzi Y assessed as decrease in parasite growth at 25 uM measured after 72 hrs by optical microscopic analysis; format: functional
[19] = system: Trypanosoma cruzi; experiment: Trypanocidal activity against epimastigotes form of Trypanosoma cruzi Y assessed as decrease in parasite growth at 400 uM measured after 72 hrs by optical microscopic analysis; format: functional
[20] = target: Cruzipain (Trypanosoma cruzi) (UniProt P25779); experiment: Inhibition of C-terminal truncated Trypanosoma cruzi Tulahuen Cruzain using Z-FR-AMC as substrate at 100 uM preincubated with enzyme for 10 mins and measured for 5 mins by fluorescence based analysis; settings: time 15.0 min

Cruzipain (Trypanosoma cruzi), sequence (P25779 123-467 limits assumed): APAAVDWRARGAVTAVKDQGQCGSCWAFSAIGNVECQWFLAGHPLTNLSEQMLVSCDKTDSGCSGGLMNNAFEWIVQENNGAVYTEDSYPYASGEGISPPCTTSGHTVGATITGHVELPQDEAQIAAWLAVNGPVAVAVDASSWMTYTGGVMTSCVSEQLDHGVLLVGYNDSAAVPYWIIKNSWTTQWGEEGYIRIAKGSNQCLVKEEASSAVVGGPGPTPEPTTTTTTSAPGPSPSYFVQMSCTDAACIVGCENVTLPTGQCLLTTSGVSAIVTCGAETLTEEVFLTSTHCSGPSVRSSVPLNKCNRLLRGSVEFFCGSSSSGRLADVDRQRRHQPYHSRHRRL
T1 sequence (P25779 whole entry, the tested form may be a part): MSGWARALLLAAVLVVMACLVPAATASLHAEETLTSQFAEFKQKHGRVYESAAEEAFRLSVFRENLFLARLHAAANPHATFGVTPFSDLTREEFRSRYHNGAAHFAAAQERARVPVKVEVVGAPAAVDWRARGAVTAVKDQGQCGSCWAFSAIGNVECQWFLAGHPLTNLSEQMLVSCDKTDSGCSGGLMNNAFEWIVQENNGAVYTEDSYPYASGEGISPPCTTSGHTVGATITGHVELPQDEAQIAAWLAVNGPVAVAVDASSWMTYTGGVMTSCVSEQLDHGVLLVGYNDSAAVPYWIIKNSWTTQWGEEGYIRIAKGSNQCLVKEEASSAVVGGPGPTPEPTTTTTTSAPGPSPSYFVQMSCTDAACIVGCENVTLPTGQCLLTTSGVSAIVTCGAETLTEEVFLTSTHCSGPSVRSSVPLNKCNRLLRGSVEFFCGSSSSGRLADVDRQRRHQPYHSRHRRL
Cathepsin L, sequence (P07711 whole entry, the tested form may be a part): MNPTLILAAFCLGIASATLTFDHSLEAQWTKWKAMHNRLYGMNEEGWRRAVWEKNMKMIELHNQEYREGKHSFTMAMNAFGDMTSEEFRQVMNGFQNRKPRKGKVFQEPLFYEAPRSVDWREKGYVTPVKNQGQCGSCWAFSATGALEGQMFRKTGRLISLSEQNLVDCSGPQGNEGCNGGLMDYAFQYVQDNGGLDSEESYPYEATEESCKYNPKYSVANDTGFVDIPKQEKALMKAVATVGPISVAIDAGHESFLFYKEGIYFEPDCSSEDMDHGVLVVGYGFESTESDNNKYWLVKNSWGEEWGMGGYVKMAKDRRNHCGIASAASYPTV

IC50 [1]: 26 µM | inhibition [2]: Active | Ki [3]: 27 µM | inhibition [4]: Active | inhibition [5]: 100% | Ratio IC50 [6]: 6 | Ratio IC50 [7]: 10
Structure (SMILES): O=C(NCc1ccco1)C1Cc2c(F)cccc2CN1 (racemic)
activity at 5 min, 100 µM [8]: 65% | inhibition at 6.25 µM [9]: 51% | inhibition at 100 µM [10]: 74% | Activity [11]: Non-Toxic | Activity [12]: Non-Toxic | Activity [13]: inactive | inhibition at 6.25 µM [14]: 39% | Activity [15]: Active | Activity [16]: inactive | inhibition at 200 µM [17]: 12% | inhibition at 25 µM [18]: 6% | inhibition at 400 µM [19]: 23%

inhibition [5]: 13%
Structure (SMILES): Cc1ccc(CNC(=O)C2Cc3ccc(F)cc3C(=O)O2)o1 (configuration not stated)

inhibition [5]: 25%
Structure (SMILES): O=C(NCc1ccco1)[C@@H]1Cc2ccccc2CO1

inhibition [20]: 100% | IC50 [1]: 3 µM | inhibition [2]: Active | Ki [3]: 4.6 µM | inhibition [4]: Active | inhibition [5]: 100% | Ratio IC50 [6]: 3 | Ratio IC50 [7]: 7
Structure (SMILES): O=C(NCc1ccco1)C1Cc2ccccc2CN1 (racemic)
activity at 5 min, 100 µM [8]: 51% | inhibition at 6.25 µM [9]: 18% | inhibition at 100 µM [10]: 25% | Activity [11]: Non-Toxic | Activity [12]: Non-Toxic | Activity [13]: inactive | inhibition at 6.25 µM [14]: 13% | Activity [16]: inactive | inhibition at 200 µM [17]: 20% | inhibition at 25 µM [18]: 43%

inhibition [5]: 8%
Structure (SMILES): Cc1ccc(CNC(=O)[C@@H]2Cc3ccccc3CN2)o1

inhibition [5]: 7%
Structure (SMILES): O=C(NCc1ccccn1)C1Cc2ccccc2CN1 (configuration not stated)

inhibition [5]: 4%
Structure (SMILES): Cc1ccc(CNC(=O)[C@H]2Cc3ccccc3CN2)o1
